Data on one compound can be found in patent EP0902002A1, “New derivatives of phthalaldehyde, process for their preparation and their use” (Hoechst Marion Roussel Deutschland GmbH, priority 1997, dated 1999).

This data set can be described thus: Physicochemical properties: solubility and pH stability.

On to `CC(CCc1c(O)cc(C=O)c(C=O)c1O)C(=O)O` (stereo not drawn) [Hericenal C], for which, for the setting “in Alkoholen und anderen polaren organischen Lösungsmitteln”, the Löslichkeit entry is “lösliche”. Further, the Stabilität entry was “stabil” (in neutralem und mild saurem Milieu (vorzugsweise > pH 2)) and “unbeständig” (in stark alkalischer Lösung (beispielsweise > pH 8)).
